As a reminder, the inhibition is the percentage by which the read-out fell short of the control. Lower therefore signals a response near the control. The term IC50 denotes the point on the concentration scale where inhibition reaches its midpoint. A lower IC50 goes with higher potency. The AUC(0-inf) is the area under the concentration-time curve extrapolated to infinity. Read a low AUC(0-inf) as low exposure. A word on the AUC(0-t): it is the area under the concentration-time curve up to a stated or last time point. A high value points to more exposure. The Cmax is the highest concentration seen after dosing. The term Tmax denotes the time at which the peak concentration occurs. In general, half-life refers to the time in which the quantity being followed falls by half. A low value points to fast loss. The bioavailability is the share of a dose that reaches the circulation, judged against a reference dose that is usually intravenous.

Entries after “also recorded” stand apart in the source; their conditions may differ. Where two headings read alike, the source gives them in different places.

The text below walks through data of patent publication US20240317754A1 (priority 2020, published 2024).

The subject of data set [1] is SARS-CoV-2 replicon. Description: microbe, parasite or virus in culture. The conditions noted are these: HEK293T cells; for inhibition at 10 µM / IC50: Severe acute respiratory syndrome coronavirus 2, HEK-293T, 60 h. Format: cell-based.
Data set [2] deals with SARS-CoV replicon. Description: microbe, parasite or virus in culture. The format is cell-based. The conditions noted are these: for IC50 / inhibition at 10 µM: Severe acute respiratory syndrome coronavirus, HEK-293T, 60 h.
The test system of data set [3] is SARS-CoV-2 (B.1). Description: microbe, parasite or virus in culture. The format is cell-based.
Data set [4] concerns MHV-A59. Description: In vivo efficacy in murine hepatitis virus (MHV-A59) infected BALB/c mice. The source says: • Mice: SPF-grade male BALB/c mice, 100, weighing 18-22 g. • Operation: The experimental mice were infected with MHV-A59 nasal drops and randomly divided into ten groups (n=10 each).
The mice were monitored daily for disease symptoms, including body weight, clinical symptoms, and death, for 14 days. Record the body weight changes of mice in each treatment group after virus infection (FIG. 4A) and survival curves (FIG. 4B). The fluorescence quantitative PCR method was used to determine the virus titer in mouse liver 72 hours after virus infection (FIG. 4C).

Data set [5] can be described thus: PK study in cynomolgus monkeys. The format is in vivo. As for the experimental part:
Three male cynomolgus monkeys weighing 3-5 kg were used for the pharmacokinetic study. Compound AVT006 was administered intragastrically with the dose of 10 mg/kg on day 1. After administration, the blood samples for plasma were collected from a jugular vein from each monkey over 48 hours. The plasma samples (1 mL) were obtained at predose, and 0.083, 0.25, 0.5, 1, 2, 4, 8, 24 and 48 h postdose. After recovery for three days, compound AVT006 was administered intravenously with a dose of 5 mg/kg at day 5. The blood samples for plasma were collected from a jugular vein from each monkey over 48 hours. 1 mL plasma samples were obtained at predose, and 0.083, 0.25, 0.5, 1, 2, 4, 8, 24 and 48 h postdose. Samples were treated with anticoagulant EDTA-K2 and centrifuged under 2000 g for 10 min at 4° C. The supernatants (plasma) were collected and stored at −65° C. for future analysis. The drug concentration in each sample was tested by Watson LIMS 7.5 SP1 HPLC/MS. The pharmacokinetic parameters were calculated using WinNonlin 6.3 software.

Data set [6] deals with SARS-CoV-2. Put plainly: In vivo efficacy against SARS-CoV-2 in hACE2 humanized mice.
For data set [7] the following is noted: as reported by NIH OpenData Portal; species not printed (context non-human primates); cited from earlier work.
The mark [8] stands for this setting: Severe acute respiratory syndrome coronavirus 2, Vero C1008, 48 h.
Setting [9] is: male, cynomolgus monkey, plasma, IV 5 mg/kg, analyzed ATV006.

`CC(C)C(=O)OC[C@H]1O[C@@](C#N)(c2ccc3c(N)ncnn23)[C@H](O)[C@@H]1O` [ATV006, ((2R,3S,4R,5R)-5-(4-aminopyrrolo[2,1-f][1,2,4]triazin-7-yl)-5-cyano-3,4-dihydroxytetrahydrofuran-2-yl)methyl isobutyrate]: in data set [1] (in words), the “antiviral activity relative to GS-441524” value is “lower IC50 values and higher antiviral activity”; the “inhibition of SARS-CoV-2 replicon replication” value is recorded as “significant inhibitory effects”. Further, in data set [1], the inhibition at 10 µM is 98.6% and the concentration for half-maximal inhibition (IC50) stood at 510 nM. In data set [2], the “activity relative to GS-441524” value was “twice that of compound GS-441524”, half-maximal inhibition (IC50) was put at 570 nM and at 10 µM the inhibition was 99.2%. The midpoint of inhibition in data set [3] (setting [8]), the IC50, lay at 1360 nM. Besides, in data set [4] (BALB/c mice, 2 mg/kg IG), the “day after infection on which mice began to die” value stood at 4 days and the median death rate turned out to be 6 days. Further, the mortality rate in data set [4] (BALB/c mice, 2 mg/kg IG, by day 10 after infection, vs control group p=0.0291) worked out at 100%. For the same compound, in data set [4] (BALB/c mice, 2 mg/kg IG, in words, 2 mg/kg), the survival result was “positive effect in prolonging the survival time of animals; also recorded: increased the survival rate”. Moreover, in data set [4] (BALB/c mice, ATV006 IG at doses except 2 mg/kg (5-50 mg/kg), 14 days, in words), the “death and weight loss of mice” value was “can avoid the death and weight loss of mice at low doses”. In data set [4] (BALB/c mice, in words), the “antiviral activity in vivo compared with GS-441524 and RDV” value was “better antiviral activity in vivo”. Also, the “replication of the virus in the liver” value in data set [4] (BALB/c mice, virus titer in liver 72 hours after infection, in words) is on record as “significantly inhibit the replication of the virus in the liver”. The antiviral effect result in data set [4] (mice, medium dose 5 mg/kg-50 mg/kg, in words) is on record as “excellent antiviral effect in a dose-dependent manner”. In addition, in data set [5] (in words), the “metabolism to GS-441524” value is on record as “quickly metabolized into the active metabolite GS-441524”. In data set [5] (setting [9]), the area under the curve AUC(0-inf) was determined as 19.6 ± 5.43 ng·h/mL, the area under the curve AUC(0-t) was 19.4 ± 5.35 ng·h/mL, the highest level (Cmax) was 132 ± 37.4 ng/mL and the Tmax stood at 5 min. This compound also gave a half-life in data set [5] (setting [9]) of 4.15 ± 0.446 min. For the same compound, in data set [6], the “amount of viral genome (N gene) in lung tissue” value is given as “significantly lower than that in the control group” and the “amount of viral subgenome (subgenomic N) in lung tissue” value is on record as “significantly lower than that in the control group”.
Consider `CC(C)CC(=O)OC[C@H]1O[C@@](C#N)(c2ccc3c(N)ncnn23)[C@H](O)[C@@H]1O` [ATV017, ((2R,3S,4R,5R)-5-(4-aminopyrrolo[2,1-f][1,2,4]triazin-7-yl)-5-cyano-3,4-dihydroxytetrahydrofuran-2-yl)methyl 3-methylbutanoate], for which, in data set [1], 10 µM produced 97.2% inhibition and the IC50 was 430 nM. This compound had a half-inhibitory concentration (IC50) in data set [3] (setting [8]) of 2190 nM.
On the same counts, the results for `CC(C)(C)C(=O)OC[C@H]1O[C@@](C#N)(c2ccc3c(N)ncnn23)[C@H](O)[C@@H]1O` [ATV018, ((2R,3S,4R,5R)-5-(4-aminopyrrolo[2,1-f][1,2,4]triazin-7-yl)-5-cyano-3,4-dihydroxytetrahydrofuran-2-yl)methyl pivalate] are 97.5%, 420 nM and 938 nM.
Take `N#C[C@@]1(c2ccc3c(N)ncnn23)O[C@H](CO)[C@@H](O)[C@H]1O` [GS-441524, reference compound]: in data set [7], the bioavailability is reported as 8.3%. In addition, the inhibition at 10 µM in data set [1] and in data set [2] was 99.8% throughout. Moreover, the figures for the IC50 in data set [1], in data set [2] and in data set [3] were 950 nM, 1100 nM and 2280 nM, respectively.
